Measurements as given in US6159940A, “Method for modulating hemopoiesis” (Immunotech Developments Inc., priority 1999, dated 2000).

Tests used:
[1] = tested on: karyocytes in femoral bone marrow; experiment: Bone marrow regeneration in irradiated mice (4 Gy), scheme 2; format: in vivo
Procedure: Irradiated mice (4 Gy) received intramuscular injections of the peptide in the dose of 10 μg/kg according to 2 schemes.
b) According to scheme 2, the peptide injections were made starting from the 3rd day after the irradiation, at the same time of maximum depletion of the pool of mature nucleated cells and the bone marrow. The groups of mice were formed in the same way as in the previous scheme. […] Tables 9 and 10 present the data on karyocyte and lymphocyte counts in blood (per 1 mm^3) of mice treated according to scheme 2.
The data in Table 11 reflect the process of bone marrow regeneration in control and test irradiated (4 Gy) mice treated with peptide according to scheme 2. The regeneration was equally intensive in all animal groups till the 11th day, from day 14 to day 18 the nucleated cells counts were considerably higher in the bone marrow of test mice.

Effect on liver function = format: in vivo, rabbits; settings: 0.01% solution for 30 days
Procedure: The tests were performed in 20 rabbits, who received injections of 0.01% H-Ile-Glu-Trp-OH solution for 30 days.

CFU-S-8 and CFU-S-12 = experiment: Cytostatic (Cytosine-Arabinoside)-induced cytopenia: karyocytes, CFU-S-8, CFU-S-12 in bone marrow; format: in vivo, mice; settings: donor bone marrow; CA 20 mg/kg i.p. once; N 10 μg/kg once daily, three injections
Procedure: Used as a cytostatic, Cytosine-Arabinoside (CA) was intraperitoneally injected to donor mice once in the dose of 20 mg/kg. The peptide was given according to the following scheme: 10 μg/kg once daily, three injections starting from the first hour after CA. Intact mice received H-Ile-Glu-Trp-OH in the same doses and according to the same schedule. On day 8 after the cytostatic injection, determined were karyocyte count in the donor bone marrow and the content of hemopoietic progenitors of different polipotencies: committed CFU-S-8 and CFU-S-12. CFU-8 are committed stem cells which later undergo differentiation. CFU-12 are the polypotent cells, from which stem cells can be recruited (i.e. they maintain the pool of stem cells). This is a slowly proliferating cell population, mainly in G phase. That is why it is important to evaluate the effect of a preparation on the pools of both committed (CFU-8) and polypotent (CFU- 12) cells. To this end, bone marrow was extracted from donor's femoral bones and injected to lethally irradiated recipients. After the cell injections, every test group was divided into 2 subgroups: some animals were killed on day 8, the other on day 12. Spleens were taken out and the colonies were counted. The tests were carried out on 105 mice.

Acute toxicity in mice = format: in vivo
Procedure: An acute toxicity study of the peptide was carried out in compliance with methodical recommendations of the Pharmacological Committee of the Russian Federation (RF), "Requirements to Preclinical Study of General Toxic Action of New Pharmacological Substances", M., 1985.
To establish the safety of use of the peptides, toxicity tests were performed. Toxicity tests where performed in accordance Pharmacological Committee Russian Federation (RF) "guidelines for the pre-clinical study of general toxic activity of new pharmacological compounds". M., 1985.
Acute toxicity was studied in 120 mice (60 males, 60 females). Ld50 was not reached with the dose 10000 times as high as the therapeutic one. The preferred therapeutic dose is 0.001-0.1 mg/kg.

CFU-S = experiment: Spleen colony formation from RAMBS-treated bone marrow in lethally irradiated mice; format: in vivo, (CBA×C57BL)F1 female mice
Description: (CBA×C57BL)F1 female mice (n=2500), 2-months old, weighing about 20 g, were used in the experiment.
As is known, there is a close relationship between T-cells and hemopoietic progenitors. It was shown that, along with colony-forming units of spleen (CFU-S), thymocytes participate in colony formation of spleens of irradiated mice by controlling proliferation of the hemopoietic progenitor cells. The fact was established in a test system, which allowed a selective removal of accessory T-cells from bone marrow with the help of rabbit antimouse brain antiserum (RAMBS) and their substitution with other factors. Aliquots (0.1 ml) of bone marrow suspension (2×10^7 cells), RAMBS, and medium 199 were mixed and incubated for 1 hour at 37° C. Then the cells were washed with centrifuging, resuspended and injected to lethally irradiated mice.
According to the aforesaid scheme, instead of thymocytes mice received the peptide, H-Ile-Glu-Trp-OH injections 30 minutes before the injections of RAMBS-treated bone marrow suspension.

In the case of H-Ile-Glu-Trp-OH, the “Karyocyte Count in Femoral Bone Marrow” value ([1]; scheme 2, 1 Time, Day 7) is reported as 16.4 ± 0.3 × 10^6, the “Karyocyte Count in Femoral Bone Marrow” value ([1]; scheme 2, 1 Time, Day 11) is reported as 17.9 ± 1.8 × 10^6 and the “Karyocyte Count in Femoral Bone Marrow” value ([1]; scheme 2, 1 Time, Day 14) is reported as 18.7 ± 1.1 × 10^6. For the same substance, the “Karyocyte Count in Femoral Bone Marrow” value ([1]; scheme 2, 1 Time, Day 18) was 18.0 ± 0.4 × 10^6, the “Karyocyte Count in Femoral Bone Marrow” value ([1]; scheme 2, 1 Time, Day 21) was 22.4 ± 2.2 × 10^6 and the “Karyocyte Count in Femoral Bone Marrow” value ([1]; scheme 2, 2 Times, Day 7) was 14.9 ± 1.7 × 10^6. For the same substance, the “Karyocyte Count in Femoral Bone Marrow” value ([1]; scheme 2, 2 Times, Day 11) was 18.6 ± 2.3 × 10^6, the “Karyocyte Count in Femoral Bone Marrow” value ([1]; scheme 2, 2 Times, Day 14) was 14.1 ± 1.7 × 10^6 and the “Karyocyte Count in Femoral Bone Marrow” value ([1]; scheme 2, 2 Times, Day 18) was 17.2 ± 1.0 × 10^6. For the same substance, the “Karyocyte Count in Femoral Bone Marrow” value ([1]; scheme 2, 2 Times, Day 21) was 18.9 ± 0.6 × 10^6, the “Karyocyte Count in Femoral Bone Marrow” value ([1]; scheme 2, 3 Times, Day 7) was 12.25 ± 1.3 × 10^6 and the “Karyocyte Count in Femoral Bone Marrow” value ([1]; scheme 2, 3 Times, Day 11) was 18.5 ± 2.9 × 10^6. For the same substance, the “Karyocyte Count in Femoral Bone Marrow” value ([1]; scheme 2, 3 Times, Day 14) was 16.9 ± 0.8 × 10^6, the “Karyocyte Count in Femoral Bone Marrow” value ([1]; scheme 2, 3 Times, Day 18) was 16.9 ± 0.8 × 10^6 and the “Karyocyte Count in Femoral Bone Marrow” value ([1]; scheme 2, 3 Times, Day 21) was 19.5 ± 1.6 × 10^6. The “Karyocyte Count in Femoral Bone Marrow” value ([1]; scheme 2, 4 Times, Day 11) was 20.3 ± 1.3 × 10^6, the “Karyocyte Count in Femoral Bone Marrow” value ([1]; scheme 2, 4 Times, Day 14) was 18.9 ± 0.2 × 10^6 and the “Karyocyte Count in Femoral Bone Marrow” value ([1]; scheme 2, 4 Times, Day 18) was 17.7 ± 1.2 × 10^6. The “Karyocyte Count in Femoral Bone Marrow” value ([1]; scheme 2, 4 Times, Day 21) was 20.0 ± 1.8 × 10^6, the liver function (Effect on liver function) was “not to have any toxic effect on the liver function” and the “Day 8 COUNT CFU-S-8” value (CFU-S-8 and CFU-S-12) was 2805 ± 232. For the same substance, the “Day 8 COUNT CFU-S-12” value (CFU-S-8 and CFU-S-12) was 2930 ± 152, the “Day 8 COUNT Karyocytes” value (CFU-S-8 and CFU-S-12) was 23.0 ± 0.9 × 10^6 and the Ld50 (Acute toxicity in mice; 120 mice) was > 10000 times as high as the therapeutic one. For the same substance, the acute toxic effect (Acute toxicity in mice; intraperitoneal injection of a 10,000-fold dose) was “did not cause an acute toxic effect”, the “Average Colony Count” value (CFU-S; RAMBS-treated bone marrow + preparation, lethally irradiated mice) was 6,3 ± 0,4 and the “increase of colony yields as compared to RAMBS-treated bone marrow” value (CFU-S; mouse, in vivo) was 2-3 times.
